# Reference: US10597388B2, “Pyridazinone herbicides” (FMC CORPORATION, priority 2014, dated 2020)
# Assays:
# Test in all cases: Test D controlled growth environment herbicide test, pre- and postemergence
# Assay type in all cases: in vivo
# [1] = test system: canarygrass (Phalaris minor)
# Source text: (§1) Seeds of plant species selected from bluegrass (annual bluegrass, Poa annua), blackgrass (Alopecurus myosuroides), Canada thistle (Cirsium arvense), canarygrass (Phalaris minor), chickweed (common chickweed, Stellaria media), geranium, cutleaf (cutleaf geranium, Geranium dissectum), galium (catchweed bedstraw, Galium aparine), bromegrass, downy (downy bromegrass, Bromus tectorum), field poppy (Papaver rhoeas), field violet (Viola arvensis), foxtail, green (green foxtail, Setaria viridis), deadnettle (henbit deadnettle, Lamium amplexicaule), ryegrass, Italian (Italian ryegrass, Lolium multiflorum), kochia (Kochia scoparia), lambsquarters (Chenopodium album), oilseed rape (Brassica napus), pigweed (Amaranthus retroflexus), chamomile (scentless chamomile, Matricaria inodora), Russian thistle (Salsola kali), speedwell (bird's-eye speedwell, Veronica persica), barley, spring (spring barley, Hordeum vulgare), wheat, spring (spring wheat, Triticum aestivum), buckwheat, wild (wild buckwheat, Polygonum convolvulus), mustard, wild (wild mustard, Sinapis arvensis), oat, wild (wild oat, Avena fatua), radish, wild (wild radish, Raphanus raphanistrum), windgrass (Apera spica-venti), barley, winter (winter barley, Hordeum vulgare), and wheat, winter (winter wheat, Triticum aestivum) were planted into a silt loam soil and treated preemergence with test chemicals formulated in a non-phytotoxic solvent mixture which included a surfactant.
# (§2) At the same time, these species were planted in pots containing Redi-Earth® planting medium (Scotts Company, 14111 Scottslawn Road, Marysville, Ohio 43041) comprising spaghnum peat moss, vermiculite, wetting agent and starter nutrients and treated with postemergence applications of the test chemicals formulated in the same manner. Plants ranged in height from 2 to 18 cm (1- to 4-leaf stage). Treated plants and controls were maintained in a controlled growth environment for 14 to 21 d after which time all species were compared to controls and visually evaluated. Plant response ratings, summarized in Table D, are based on a scale of 0 to 100 where 0 is no effect and 100 is complete control. A dash (-) response means no test result.
# [2] = test system: barley, winter (winter barley, Hordeum vulgare)
# Source text: as §1, §2
# [3] = test system: Russian thistle (Salsola kali)
# Source text: as §1, §2
# [4] = test system: radish, wild (wild radish, Raphanus raphanistrum)
# Source text: as §1, §2
# [5] = test system: oat, wild (wild oat, Avena fatua)
# Source text: as §1, §2
# [6] = test system: windgrass (Apera spica-venti)
# Source text: as §1, §2
# [7] = test system: bromegrass, downy (downy bromegrass, Bromus tectorum)
# Source text: as §1, §2
# [8] = test system: buckwheat, wild (wild buckwheat, Polygonum convolvulus)
# Source text: as §1, §2
# [9] = test system: field violet (Viola arvensis)
# Source text: as §1, §2
# [10] = test system: galium (catchweed bedstraw, Galium aparine)
# Source text: as §1, §2
# [11] = test system: pigweed (Amaranthus retroflexus)
# Source text: as §1, §2
# [12] = test system: kochia (Kochia scoparia)
# Source text: as §1, §2
# [13] = test system: chickweed (common chickweed, Stellaria media)
# Source text: as §1, §2
# [14] = Postemergence, 31 g ai/ha, scale 0 to 100 (0 no effect, 100 complete control)
# [15] = Postemergence, 125 g ai/ha, visual rating on scale 0 (no effect) to 100 (complete control), 14 to 21 d
# [16] = Postemergence, 250 g ai/ha, scale 0 to 100 (0 no effect, 100 complete control)
# [17] = Preemergence, 62 g ai/ha, scale 0 to 100 (0 no effect, 100 complete control)
# [18] = Preemergence, 125 g ai/ha, scale 0 to 100 (0 no effect, 100 complete control)
# [19] = Preemergence, 250 g ai/ha, scale 0 to 100 (0 no effect, 100 complete control)
# [20] = postemergence, 62 g ai/ha, scale 0 to 100, 0 no effect, 100 complete control
smiles,measurement,setting,value
CCC(=O)Oc1c(C)nn(C)c(=O)c1-c1c(C)sc2ccc(C)cc12 [Compound 42],Canarygrass plant response rating,[1]; [14],50
same,"Plant response rating, Canarygrass",[1]; [15],80
same,"Plant response rating, Canarygrass",[1]; [16],80
same,"Plant response rating (scale of 0 to 100), Canarygrass","[1]; Preemergence, 31 g ai/ha",90
same,"Plant response rating, Canarygrass",[1]; [17],95
same,"Plant response rating, Canarygrass",[1]; [18],100
same,"Plant response rating, Canarygrass",[1]; [19],100
same,"Plant response rating, Canarygrass",[1]; [20],75
same,"Plant response rating, Barley, Winter",[2]; [14],0
same,"Plant response rating, Barley, Winter",[2]; [15],0
same,"Plant response rating, Barley, Winter",[2]; [16],10
same,"Plant response rating (scale of 0 to 100), Barley, Winter","[2]; Preemergence, 31 g ai/ha",0
same,"Plant response rating, Barley, Winter",[2]; [17],0
same,"Plant response rating, Barley, Winter",[2]; [18],5
same,"Barley, Winter plant response rating",[2]; [19],15
same,"Plant response rating, Barley, Winter",[2]; [20],0
same,Russian Thistle plant response rating,[3]; [14],70
same,"Plant response rating, Russian Thistle",[3]; [15],85
same,"Plant response rating, Russian Thistle",[3]; [16],90
same,"Plant response rating (scale of 0 to 100), Russian Thistle","[3]; Preemergence, 31 g ai/ha",10
same,"Plant response rating, Russian Thistle",[3]; [17],15
same,"Plant response rating, Russian Thistle",[3]; [18],65
same,"Plant response rating, Russian Thistle",[3]; [19],75
same,"Plant response rating, Russian Thistle",[3]; [20],75
same,"Radish, Wild plant response rating",[4]; [14],5
same,"Plant response rating, Radish, Wild",[4]; [15],20
same,"Plant response rating, Radish, Wild",[4]; [16],65
same,"Plant response rating (scale of 0 to 100), Radish, Wild","[4]; Preemergence, 31 g ai/ha",0
same,"Plant response rating, Radish, Wild",[4]; [18],15
same,"Plant response rating, Radish, Wild",[4]; [19],60
same,"Plant response rating, Radish, Wild",[4]; [20],10
same,"Oat, Wild plant response rating",[5]; [14],75
same,"Plant response rating, Oat, Wild",[5]; [15],85
same,"Plant response rating, Oat, Wild",[5]; [16],95
same,"Plant response rating (scale of 0 to 100), Oat, Wild","[5]; Preemergence, 31 g ai/ha",90
same,"Plant response rating, Oat, Wild",[5]; [17],90
same,"Plant response rating, Oat, Wild",[5]; [18],95
same,"Plant response rating, Oat, Wild",[5]; [19],95
same,"Plant response rating, Oat, Wild",[5]; [20],85
same,Windgrass plant response rating,[6]; [14],70
same,"Plant response rating, Windgrass",[6]; [15],90
same,"Plant response rating, Windgrass",[6]; [16],98
same,"Plant response rating (scale of 0 to 100), Windgrass","[6]; Preemergence, 31 g ai/ha",70
same,"Plant response rating, Windgrass",[6]; [17],85
same,"Plant response rating, Windgrass",[6]; [18],85
same,"Plant response rating, Windgrass",[6]; [19],100
same,"Plant response rating, Windgrass",[6]; [20],75
same,"Bromegrass, Downy plant response rating",[7]; [14],0
same,"Plant response rating, Bromegrass, Downy",[7]; [15],40
same,"Plant response rating, Bromegrass, Downy",[7]; [16],70
same,"Plant response rating (scale of 0 to 100), Bromegrass, Downy","[7]; Preemergence, 31 g ai/ha",45
same,"Plant response rating, Bromegrass, Downy",[7]; [17],55
same,"Plant response rating, Bromegrass, Downy",[7]; [18],70
same,"Plant response rating, Bromegrass, Downy",[7]; [19],90
same,"Plant response rating, Bromegrass, Downy",[7]; [20],20
same,"Buckwheat, Wild plant response rating",[8]; [14],80
same,"Plant response rating, Buckwheat, Wild",[8]; [15],100
same,"Plant response rating, Buckwheat, Wild",[8]; [16],100
same,"Plant response rating (scale of 0 to 100), Buckwheat, Wild","[8]; Preemergence, 31 g ai/ha",20
same,"Plant response rating, Buckwheat, Wild",[8]; [17],25
same,"Plant response rating, Buckwheat, Wild",[8]; [18],80
same,"Plant response rating, Buckwheat, Wild",[8]; [19],60
same,"Plant response rating, Buckwheat, Wild",[8]; [20],95
same,Field Violet plant response rating,[9]; [14],70
same,"Plant response rating, Field Violet",[9]; [15],90
same,"Plant response rating, Field Violet",[9]; [16],90
same,"Plant response rating (scale of 0 to 100), Field Violet","[9]; Preemergence, 31 g ai/ha",85
same,"Plant response rating, Field Violet",[9]; [17],95
same,"Plant response rating, Field Violet",[9]; [18],100
same,"Plant response rating, Field Violet",[9]; [19],100
same,"Plant response rating, Field Violet",[9]; [20],80
same,Galium plant response rating,[10]; [14],100
same,"Plant response rating, Galium",[10]; [15],100
same,"Plant response rating, Galium",[10]; [16],100
same,"Plant response rating (scale of 0 to 100), Galium","[10]; Preemergence, 31 g ai/ha",70
same,"Plant response rating, Galium",[10]; [17],85
same,"Plant response rating, Galium",[10]; [18],95
same,"Plant response rating, Galium",[10]; [19],100
same,"Plant response rating, Galium",[10]; [20],100
same,Pigweed plant response rating,[11]; [14],85
same,"Plant response rating, Pigweed",[11]; [15],90
same,"Plant response rating, Pigweed",[11]; [16],100
same,"Plant response rating (scale of 0 to 100), Pigweed","[11]; Preemergence, 31 g ai/ha",90
same,"Plant response rating, Pigweed",[11]; [17],100
same,"Plant response rating, Pigweed",[11]; [18],100
same,"Plant response rating, Pigweed",[11]; [19],100
same,"Plant response rating, Pigweed",[11]; [20],90
same,Kochia plant response rating,[12]; [14],70
same,"Plant response rating, Kochia",[12]; [15],95
same,"Plant response rating, Kochia",[12]; [16],100
same,"Plant response rating (scale of 0 to 100), Kochia","[12]; Preemergence, 31 g ai/ha",20
same,"Plant response rating, Kochia",[12]; [17],60
same,"Plant response rating, Kochia",[12]; [18],75
same,"Plant response rating, Kochia",[12]; [19],100
same,"Plant response rating, Kochia",[12]; [20],90
same,Chickweed plant response rating,[13]; [14],95
same,"Plant response rating, Chickweed",[13]; [15],100
same,"Plant response rating, Chickweed",[13]; [16],100
same,"Plant response rating (scale of 0 to 100), Chickweed","[13]; Preemergence, 31 g ai/ha",100
same,"Plant response rating, Chickweed",[13]; [17],100
same,"Plant response rating, Chickweed",[13]; [18],100
same,"Plant response rating, Chickweed",[13]; [19],100
same,"Plant response rating, Chickweed",[13]; [20],100
